Measured values taken from patent EP0450097B1, “BENZOHETEROCYCLIC COMPOUNDS” (OTSUKA PHARMACEUTICAL CO., LTD., priority 1989, dated 1991).

These molecules were tested against T1, V₂ receptor (Rattus norvegicus, UniProt Q00788) (assay: V₂ receptor binding assay ([³H]-Arg-vasopressin, rat kidney plasma membrane preparations)). Conditions: 4°C for 3 hours.
T1 construct: Using rat kidney plasma membrane preparations; from tissue; host or cells: rat kidney plasma membranes
Procedure: Using rat kidney plasma membrane preparations prepared according to O. Hechter's method [cf: J. Bio. […] After incubation, the mixture is filtered using the glass filter (GF/F) so as to separate the membrane preparation combined with vasopressin and then washed twice with the buffer (5 ml). This glass filter is taken out and mixed with liquid scintillation cocktail. The amount of [³H]-vasopressin combined with the membrane is measured by liquid scintillation counter and the rate of the inhibitory effect of the test compound is estimated according to the following equation. Rate of the inhibitory effect (%) = 100 -(C1 - B1)/(C0 - B1)X 100 [formula] C¹: The amount of [³H]-vasopressin combined with the membrane in the presence of the test compound (in prescribed amount). C⁰: The amount of [³H)-vasopressin combined with the membrane in the absence of the test compound. B¹: The amount of [³H]-vasopressin combined with the membrane in the presence of the excess amount of vasopressin (10⁻⁶ M).
The results are expressed as IC₅₀ values, which is the concentration of the test compound required to achieve the inhibitory effect in the rate of 50 %.

T1 sequence (Q00788 whole entry): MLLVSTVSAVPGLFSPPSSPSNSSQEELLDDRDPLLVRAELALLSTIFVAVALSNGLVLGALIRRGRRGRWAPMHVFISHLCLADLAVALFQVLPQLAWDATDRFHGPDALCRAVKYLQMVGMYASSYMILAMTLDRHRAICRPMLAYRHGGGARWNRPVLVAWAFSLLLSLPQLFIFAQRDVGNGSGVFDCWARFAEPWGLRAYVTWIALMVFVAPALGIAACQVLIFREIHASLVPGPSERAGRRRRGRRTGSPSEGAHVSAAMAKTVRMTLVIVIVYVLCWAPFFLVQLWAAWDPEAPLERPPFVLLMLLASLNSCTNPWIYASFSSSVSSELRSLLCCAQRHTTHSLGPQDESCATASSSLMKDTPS

| SMILES | IC50 [µM] |
| --- | --- |
| O=C(Nc1ccc(C(=O)N2CCCc3ccccc32)cc1)c1ccccc1 [Test compound 1, 1-(4-Benzoylaminobenzoyl)-1,2,3,4-tetrahydroquinoline] | 0.98 |
| O=C(Nc1ccc(C(=O)N2CCCc3ccccc32)cc1)c1cccc(Cl)c1 [compound 2] | 0.2 |
| COc1cccc(C(=O)Nc2ccc(C(=O)N3CCCc4ccccc43)cc2)c1 [compound 3] | 0.4 |
| N#Cc1cccc(C(=O)Nc2ccc(C(=O)N3CCCc4ccccc43)cc2)c1 [compound 4] | 0.58 |
| Nc1cccc(C(=O)Nc2ccc(C(=O)N3CCCc4ccccc43)cc2)c1 [compound 5] | 1.2 |
| Cc1ccccc1C(=O)Nc1ccc(C(=O)N2CCCc3ccccc32)cc1 [compound 7] | 0.2 |
| O=C(Nc1ccc(C(=O)N2CCCc3ccccc32)cc1)c1ccccc1C(F)(F)F [compound 8] | 0.32 |
| O=C(Nc1ccc(C(=O)N2CCCc3ccccc32)cc1)c1ccccc1[N+](=O)[O-] [compound 9] | 0.53 |
| CC(C)(C)CC(=O)Nc1ccc(C(=O)N2CCCc3ccccc32)cc1 [compound 11] | 1.05 |
| O=C(CC1CCCCC1)Nc1ccc(C(=O)N2CCCc3ccccc32)cc1 [compound 12] | 1.97 |
| O=C(Cc1ccccc1)Nc1ccc(C(=O)N2CCCc3ccccc32)cc1 [compound 13] | 1.02 |
| O=C(Nc1ccc(C(=O)N2CCCc3ccccc32)cc1)C1CCCCC1 [compound 14] | 0.23 |
| O=C(Nc1ccc(C(=O)N2CCCc3ccccc32)cc1)C1CCCCCC1 [compound 15] | 0.13 |
| O=C(Nc1ccc(C(=O)N2CCCc3ccccc32)cc1)C1CCCCCCC1 [compound 16] | 0.17 |
| O=C(Nc1ccc(C(=O)N2CCCc3ccccc32)cc1)c1cccc2ccccc12 [compound 18] | 1 |
| O=C(Nc1ccccc1C(=O)N1CCCc2ccccc21)c1ccc2ccccc2c1 [compound 20] | 1.4 |
| COc1ccc(NC(=O)c2ccc(C(=O)N3CCCc4ccccc43)cc2)cc1 [compound 21] | 1 |
| Cc1ccccc1NC(=O)c1ccc(C(=O)N2CCCc3ccccc32)cc1 [compound 22] | 0.33 |
| O=C(Nc1cccc(Cl)c1)c1ccc(C(=O)N2CCCc3ccccc32)cc1 [compound 23] | 1.07 |
| O=C(Nc1cc(Cl)cc(Cl)c1)c1ccc(C(=O)N2CCCc3ccccc32)cc1 [compound 24] | 1.09 |
| O=C(NC1CCCCC1)c1ccc(C(=O)N2CCCc3ccccc32)cc1 [compound 25] | 1.67 |
| O=C(Nc1ccc(C(=O)N2CCCCCc3ccccc32)cc1)c1ccccc1 [compound 35] | 0.2 |
| COc1cccc(C(=O)Nc2ccc(C(=O)N3CCCCCc4ccccc43)cc2)c1 [compound 37] | 0.16 |

| SMILES | IC50 [µM] |
| --- | --- |
| Cc1cccc(C(=O)Nc2ccc(C(=O)N3CCOCc4ccccc43)cc2)c1 [compound 41] | 0.2 |
| O=C(Nc1ccc(C(=O)N2CCOCc3ccccc32)cc1)c1cc(Cl)cc(Cl)c1 [compound 43] | 0.17 |
| CC1Cc2ccccc2N(C(=O)c2ccc(NC(=O)c3ccccc3)cc2)C1 (centres unmarked) [compound 45] | 0.19 |
| COc1cccc(C(=O)Nc2ccc(C(=O)N3CC(C)Cc4ccccc43)cc2)c1 (centres unmarked) [compound 47] | 0.2 |
| CN1CCN(C(=O)c2ccc(NC(=O)C3CCCCC3)cc2)c2ccccc21 [compound 50] | 1.3 |
| Cc1ccccc1C(=O)Nc1ccc(C(=O)N2CCN(C)c3ccccc32)cc1 [compound 51] | 0.4 |
| Cc1cccc(C(=O)Nc2ccc(C(=O)N3CCN(C)c4ccccc43)cc2)c1C [compound 52] | 0.32 |
| CN1CCN(C(=O)c2ccc(NC(=O)c3cc(Cl)cc(Cl)c3)cc2)c2ccccc21 [compound 53] | 1.6 |
| CN1CCN(C(=O)c2ccc(NC(=O)C3CCCCC3)cc2)c2ccccc2C1 [compound 79] | 0.53 |
| Cc1cccc(C(=O)Nc2ccc(C(=O)N3CCN(C)Cc4ccccc43)cc2)c1C [compound 81] | 0.15 |
| COc1cccc(C(=O)Nc2ccc(C(=O)N3CCN(C)Cc4ccccc43)cc2)c1 [compound 83] | 0.73 |
| CCCN1CCN(C(=O)c2ccc(NC(=O)c3cccc(C)c3C)cc2)c2ccccc2C1 [compound 86] | 0.58 |
| COc1cc(C(=O)N2CCN(C)Cc3ccccc32)ccc1NC(=O)c1cc(Cl)cc(Cl)c1 [compound 92] | 0.41 |
| Cc1cccc(C(=O)Nc2ccc(C(=O)N3CC(N4CCCC4)Cc4ccccc43)cc2)c1C (centres unmarked) [compound 93] | 0.52 |
| NC1Cc2ccccc2N(C(=O)c2ccc(NC(=O)c3cc(Cl)cc(Cl)c3)cc2)C1 (centres unmarked) [compound 98] | 0.45 |
| CC(=O)NC1Cc2ccccc2N(C(=O)c2ccc(NC(=O)c3cc(Cl)cc(Cl)c3)cc2)C1 (centres unmarked) [compound 99] | 1.6 |
| O=C(CN1CCCCC1)Nc1ccc(C(=O)N2CCCCc3ccccc32)cc1 [compound 103] | 0.54 |
| O=C(COc1ccccc1)Nc1ccc(C(=O)N2CCCCc3ccccc32)cc1 [compound 104] | 0.37 |
| CC(C)(COc1ccccc1)NCC(=O)Nc1ccc(C(=O)N2CCCCc3ccccc32)cc1 [compound 106] | 0.44 |
| Cc1ccc(NCC(=O)Nc2ccc(C(=O)N3CCCCc4ccccc43)cc2)c(C)c1 [compound 113] | 0.28 |
| Cc1ccccc1C(=O)Nc1ccc(C(=O)N2CCCC(N(C)C)c3ccccc32)cc1OCc1ccccc1 (centres unmarked) [compound 170] | 0.25 |
| Cc1ccccc1C(=O)Nc1ccc(C(=O)N2CCC[S+]([O-])c3ccccc32)cc1 (centres unmarked) [compound 171] | 0.87 |

Molecules with a lower IC50, results first:

| IC50 [µM] | SMILES |
| --- | --- |
| 0.12 | COc1cccc(NCC(=O)Nc2ccc(C(=O)N3CCCCc4ccccc43)cc2)c1 [compound 108] |
| 0.11 | CC1CCc2ccccc2N1C(=O)c1ccc(NC(=O)c2cc(Cl)cc(Cl)c2)cc1 (centres unmarked) [compound 54] |
| 0.1 | O=C(Nc1ccc(C(=O)N2CCCC(=O)c3ccccc32)cc1)c1cc(Cl)cc(Cl)c1 [compound 139] |
| 0.098 | N#Cc1cccc(C(=O)Nc2ccc(C(=O)N3CCCCc4ccccc43)cc2)c1 [compound 31] |
| 0.095 | Cc1ccc2c(c1)CCCN2C(=O)c1ccc(NC(=O)c2cc(Cl)cc(Cl)c2)cc1 [compound 94] |
| 0.091 | CC1CCN(C(=O)c2ccc(NC(=O)c3cc(Cl)cc(Cl)c3)cc2)c2ccccc21 (centres unmarked) [compound 55] |
| 0.089 | COc1ccc2c(c1)CCCN2C(=O)c1ccc(NC(=O)c2cc(Cl)cc(Cl)c2)cc1 [compound 95] |
| 0.087 | COc1cccc(OCC(=O)Nc2ccc(C(=O)N3CCCCc4ccccc43)cc2)c1 [compound 111] |
| 0.082 | O=C(Nc1ccc(C(=O)N2CCCc3ccccc32)cc1)c1cc(Cl)cc(Cl)c1 [compound 10] |
| 0.071 | O=C(Nc1ccc(C(=O)N2CCCCCc3ccccc32)cc1)c1cc(Cl)cc(Cl)c1 [compound 39] |
| 0.071 | CCCNC1CCCN(C(=O)c2ccc(NC(=O)c3ccc(Cl)cc3Cl)cc2)c2ccccc21 (centres unmarked) [compound 169] |
| 0.063 | Cc1cccc(C(=O)Nc2ccc(C(=O)N3CCOCc4ccccc43)cc2)c1C [compound 42] |
| 0.063 | CC1Cc2ccccc2N(C(=O)c2ccc(NC(=O)c3cc(Cl)cc(Cl)c3)cc2)C1 (centres unmarked) [compound 49] |
| 0.06 | Cc1ccccc1C(=O)Nc1ccc(C(=O)N2CCC(CN(C)C)c3ccccc32)cc1 (centres unmarked) [compound 145] |
| 0.05 | CC1Cc2ccccc2N(C(=O)c2ccc(NC(=O)C3CCCCC3)cc2)C1 (centres unmarked) [compound 44] |
| 0.049 | O=C(Nc1ccc(C(=O)N2CCCCCc3ccccc32)cc1)C1CCCCC1 [compound 34] |

| IC50 [µM] | SMILES |
| --- | --- |
| 0.046 | CN1CCCN(C(=O)c2ccc(NC(=O)c3ccccc3)cc2)c2ccccc21 [compound 87] |
| 0.044 | Cc1ccc(NCC(=O)Nc2ccc(C(=O)N3CCCCc4ccccc43)cc2)cc1 [compound 110] |
| 0.039 | O=C(Nc1ccc(C(=O)N2CC(CO)Cc3ccccc32)cc1)c1cc(Cl)cc(Cl)c1 (centres unmarked) [compound 96] |
| 0.038 | CN(C)C1CCCN(C(=O)c2ccc(NC(=O)c3ccccc3C(C)(C)C)cc2Cl)c2ccccc21 (centres unmarked) [compound 175] |
| 0.035 | CN1CCCN(C(=O)c2ccc(NC(=O)c3cc(Cl)cc(Cl)c3)cc2)c2ccccc21 [compound 89] |
| 0.032 | Cc1cccc(OCC(=O)Nc2ccc(C(=O)N3CCCCc4ccccc43)cc2)c1 [compound 107] |
| 0.029 | Cc1cccc(C(=O)Nc2ccc(C(=O)N3CCCCCc4ccccc43)cc2)c1C [compound 38] |
| 0.024 | CNC1CCN(C(=O)c2ccc(NC(=O)c3cc(Cl)cc(Cl)c3)cc2)c2ccccc21 (centres unmarked) [compound 97] |
| 0.024 | CN1CCN(C(=O)c2ccc(NC(=O)c3cc(Cl)cc(Cl)c3)cc2Cl)c2ccccc2C1 [compound 140] |
| 0.021 | Cc1cccc(C(=O)Nc2ccc(C(=O)N3CC(C)Cc4ccccc43)cc2)c1C (centres unmarked) [compound 48] |
| 0.02 | COc1cc(C(=O)N2CCC(N(C)C)c3ccccc32)ccc1NC(=O)c1cccc(C)c1C (centres unmarked) [compound 144] |
| 0.011 | CN(C)C1CCN(C(=O)c2ccc(NC(=O)c3cc(Cl)cc(Cl)c3)cc2)c2ccccc21 (centres unmarked) [compound 100] |
| 0.01 | CNC1CCCN(C(=O)c2ccc(NC(=O)c3cc(Cl)cc(Cl)c3)cc2)c2ccccc21 (centres unmarked) [compound 141] |
| 0.008 | CC(=O)N(C)C1CCCN(C(=O)c2ccc(NC(=O)c3cc(Cl)cc(Cl)c3)cc2)c2ccccc21 (centres unmarked) [compound 142] |
| 0.005 | Cc1cccc(C(=O)Nc2ccc(C(=O)N3CCCN(C)c4ccccc43)cc2)c1C [compound 91] |
| 0.004 | CNC1CCCN(C(=O)c2ccc(NC(=O)c3ccccc3Cl)cc2Cl)c2ccccc21 (centres unmarked) [compound 176] |
